Measurements: patent US6121257A, “Sulfamate containing macrocyclic immunomodulators” (Abbott Laboratories, priority 1999, dated 2000)

Tested on: human mixed lymphocyte reaction (MLR)
Test: human mixed lymphocyte reaction (MLR) assay
Type: cell-based
Details: Table 1
Procedure: The immunosuppressant activity of the compounds of the present invention was determined using the human mixed lymphocyte reaction (MLR) assay described by Kino, T. et al., in Transplantation Proceedings, XIX(5):36-39, Suppl. 6 (1987), hereby incorporated by reference.

Structure (SMILES)	IC50 [nM]
CC[C@@H]1/C=C(\C)C[C@H](C)C[C@H](OC)[C@H]2O[C@@](O)(C(=O)C(=O)N3CCCC[C@H]3C(=O)O[C@H](/C(C)=C/[C@@H]3CC[C@@H](OS(=O)(=O)NC(=O)OCc4ccccc4)[C@H](OC)C3)[C@H](C)[C@@H](O)CC1=O)[C@H](C)C[C@@H]2OC [Example 3, (1R,9S,12S,13R,14S,17R,21 S,23S,24R,25S,27R)-12-((E)-2-{(1R,3R,4R)-4-[({[(benzyloxy)carbonyl]amino]sulfonyl)oxy]-3-methoxycyclohexyl}-1-methylethenyl)-17-ethyl-1,14-dihydroxy-23,25-dimethoxy-13,19,21,27-tetramethyl-2,3,10,16-tetraoxo-11,28-dioxa-4-azatricyclo[22.3.1.0^4,9]octacos-18-ene]	3.96
CC[C@@H]1/C=C(\C)C[C@H](C)C[C@H](OC)[C@H]2O[C@@](O)(C(=O)C(=O)N3CCCC[C@H]3C(=O)O[C@H](/C(C)=C/[C@@H]3CC[C@@H](OS(=O)(=O)NC(=O)OC(C)(C)C)[C@H](OC)C3)[C@H](C)[C@@H](O)CC1=O)[C@H](C)C[C@@H]2OC [Example 4, (1R,9S,12S,13R,14S,17R,21S,23S,24R,25S,27R)-12-{(E)-2-[(1R,3R,4R)-4-({[(tert-butoxycarbonyl)amino]sulfonyl}oxy)-3-methoxycyclohexyl]-1-methylethenyl}-17-ethyl-1,14-dihydroxy-23,25-dimethoxy-13,19,21,27-tetramethyl-2,3,10,16-tetraoxo-11,28-dioxa-4-azatricyclo[22.3.1.0^4,9]octacos-18-ene]	0.99
CC[C@@H]1/C=C(\C)C[C@H](C)C[C@H](OC)[C@H]2O[C@@](O)(C(=O)C(=O)N3CCCC[C@H]3C(=O)O[C@H](/C(C)=C/[C@@H]3CC[C@@H](OS(=O)(=O)NC(=O)OC4CCCC4)[C@H](OC)C3)[C@H](C)[C@@H](O)CC1=O)[C@H](C)C[C@@H]2OC [Example 5, (1R,9S,12S,13R,14S,17R,21S,23S,24R,25S,27R)-12-((E)-2-{(1R,3R.4R)-4-[({[(cyclopentyloxy)carbonyl]amino}sulfonyl)oxy]-3-methoxycyclohexyl}-1-methylethenyl)-17-ethyl-1,14-dihydroxy-23,25-dimethoxy-13,19,21,27-tetramethyl-2,3,10,16-tetraoxo-11,28-dioxa-4-azatricyclo[22.3.1.0^4,9]octacos-18-ene]	26.1
CC[C@@H]1/C=C(\C)C[C@H](C)C[C@H](OC)[C@H]2O[C@@](O)(C(=O)C(=O)N3CCCC[C@H]3C(=O)O[C@H](/C(C)=C/[C@@H]3CC[C@@H](OS(=O)(=O)NC(=O)OC4CCCCC4)[C@H](OC)C3)[C@H](C)[C@@H](O)CC1=O)[C@H](C)C[C@@H]2OC [Example 6, (1R,9S,12S,13R,14S,17R,21S,23S,24R,25S,27R)-12-((E)-2-{(1R,3R,4R)-4-[({[(cyclohexyloxy)carbonyl]amino}sulfonyl)oxy]-3-methoxycyclohexyl}-1-methylethenyl)-17-ethyl-1,14-dihydroxy-23,25-dimethoxy-13,19,21,27-tetramethyl-2,3,10,16-tetraoxo-11,28-dioxa-4-azatricyclo[22.3.1.0^4,9]octacos-18-ene]	4.7
CC[C@@H]1/C=C(\C)C[C@H](C)C[C@H](OC)[C@H]2O[C@@](O)(C(=O)C(=O)N3CCCC[C@H]3C(=O)O[C@H](/C(C)=C/[C@@H]3CC[C@@H](OS(=O)(=O)NC(=O)OC4CCCCCC4)[C@H](OC)C3)[C@H](C)[C@@H](O)CC1=O)[C@H](C)C[C@@H]2OC [Example 7, (1R,9S,12S,13R,14S,17R,21S,23S,24R,25S,27R)-12-((E)-2-{(1R,3R,4R)-4-[({[(cycloheptyloxy)carbonyl]amino}sulfonyl)oxy]-3-methoxycyclohexyl}-1-methylethenyl)-17-ethyl-1,14-dihydroxy-23,25-dimethoxy-13,19,21,27-tetramethyl-2,3,10,16-tetraoxo-11,28-dioxa-4-azatricyclo[22.3.1.0^4,9]octacos-18-ene]	9.63
CC[C@@H]1/C=C(\C)C[C@H](C)C[C@H](OC)[C@H]2O[C@@](O)(C(=O)C(=O)N3CCCC[C@H]3C(=O)O[C@H](/C(C)=C/[C@@H]3CC[C@@H](OS(=O)(=O)NC(=O)OCc4cccnc4)[C@H](OC)C3)[C@H](C)[C@@H](O)CC1=O)[C@H](C)C[C@@H]2OC [Example 9, (1R,9S,12S,13R,14S,17R,21S,23S,24R,25S,27R)-17-ethyl-1,14-dihydroxy-23,25-dimethoxy-12-((E)-2-{(1R,3R,4R)-3-methoxy-4-[({[(3-pyridinylmethoxy)carbonyl]amino}sulfonyl)oxy]cyclohexyl}-1-methylethenyl)-13,19,21,27-tetramethyl-2,3,10,16-tetraoxo-11,28-dioxa-4-azatricyclo[22.3.1.0^4,9]octacos-18-ene]	4.77
CC[C@@H]1/C=C(\C)C[C@H](C)C[C@H](OC)[C@H]2O[C@@](O)(C(=O)C(=O)N3CCCC[C@H]3C(=O)O[C@H](/C(C)=C/[C@@H]3CC[C@@H](OS(=O)(=O)NC(=O)OCc4ccc([N+](=O)[O-])cc4)[C@H](OC)C3)[C@H](C)[C@@H](O)CC1=O)[C@H](C)C[C@@H]2OC [Example 11, (1R,9S,12S,13R,14S,17R,21S,23S,24R,25S,27R)-17-ethyl-1,14-dihydroxy-23,25-dimethoxy-12-[(E)-2-((1R,3R,4R)-3-methoxy-4-{[({[(4-nitrobenzyl)oxy]carbonyl}amino)sulfonyl]oxy}cyclohexyl)-1-methylethenyl]-13,19,21,27-tetramethyl-2,3,10,16-tetraoxo-11,28-dioxa-4-azatricyclo[22.3.1.0^4,9]octacos-18-ene]	6.68
CC[C@@H]1/C=C(\C)C[C@H](C)C[C@H](OC)[C@H]2O[C@@](O)(C(=O)C(=O)N3CCCC[C@H]3C(=O)O[C@H](/C(C)=C/[C@@H]3CC[C@@H](OS(=O)(=O)NC(=O)O[C@@H]4C[C@H](C)CC[C@H]4C(C)C)[C@H](OC)C3)[C@H](C)[C@@H](O)CC1=O)[C@H](C)C[C@@H]2OC [Example 12]	24.5
CC[C@@H]1/C=C(\C)C[C@H](C)C[C@H](OC)[C@H]2O[C@@](O)(C(=O)C(=O)N3CCCC[C@H]3C(=O)O[C@H](/C(C)=C/[C@@H]3CC[C@@H](OS(=O)(=O)NC(=O)OCC45CC6CC(CC(C6)C4)C5)[C@H](OC)C3)[C@H](C)[C@@H](O)CC1=O)[C@H](C)C[C@@H]2OC [Example 13, (1R,9S,12S,13R,14S,17R,21S,23S,24R,25S,27R)-12-((E)-2-{(1R,3R,4R)-4-[({[(1-adamantylmethoxy)carbonyl]amino}sulfonyl)oxy]-3-methoxycyclohexyl}-1-methylethenyl)-17-ethyl-1,14-dihydroxy-23,25-dimethoxy-13,19,21,27-tetramethyl-2,3,10,16-tetraoxo-11,28-dioxa-4-azatricyclo[22.3.1.0^4,9]octacos-18-ene]	21.6

Now those with a lower IC50, led by results:

IC50 [nM]	Structure (SMILES)
0.73	CC[C@@H]1/C=C(\C)C[C@H](C)C[C@H](OC)[C@H]2O[C@@](O)(C(=O)C(=O)N3CCCC[C@H]3C(=O)O[C@H](/C(C)=C/[C@@H]3CC[C@@H](OS(=O)(=O)NC(=O)OC)[C@H](OC)C3)[C@H](C)[C@@H](O)CC1=O)[C@H](C)C[C@@H]2OC [Example 1, (1R,9S,12S,13R,14S,17R,21S,23S,24R,25S,27R)-17-ethyl-1,14-dihydroxy-23,25-dimethoxy-12-{(E)-2-[(1R,3R,4R)-3-methoxy-4-({[(methoxycarbonyl)amino]sulfonyl)oxy)cyclohexyl]-1-methylethenyl}-13,19,21,27-tetramethyl-2,3,10,16-tetraoxo-11,28-dioxa-4-azatricyclo[22.3.1.0^4,9]octacos-18-ene]
0.57	CCOC(=O)NS(=O)(=O)O[C@@H]1CC[C@@H](/C=C(\C)[C@H]2OC(=O)[C@@H]3CCCCN3C(=O)C(=O)[C@]3(O)O[C@H]([C@@H](OC)C[C@@H](C)C/C(C)=C/[C@@H](CC)C(=O)C[C@H](O)[C@H]2C)[C@@H](OC)C[C@H]3C)C[C@H]1OC [Example 2, (1R,9S12S,13R,14S,17R,21S,23S,24R,25S,27R)-12-{(E)-2-[(1R,3R,4R)-4-({[(ethoxycarbonyl)amino]sulfonyl}oxy)-3-methoxycyclohexyl]-1-methylethenyl}-17-ethyl-1,14-dihydroxy-23,25-dimethoxy-13,19,21,27-tetramethyl-2,3,10,16-tetraoxo-11,28-dioxa-4-azatricyclo[22.3.1.0^4,9]octacos-18-ene]
0.1	CC[C@@H]1/C=C(\C)C[C@H](C)C[C@H](OC)[C@H]2O[C@@](O)(C(=O)C(=O)N3CCCC[C@H]3C(=O)O[C@H](/C(C)=C/[C@@H]3CC[C@@H](OS(=O)(=O)NC(=O)OCc4ccncc4)[C@H](OC)C3)[C@H](C)[C@@H](O)CC1=O)[C@H](C)C[C@@H]2OC [Example 8, (1R,9S,12S,13R,14S,17R,21S,23S,24R,25S,27R)-17-ethyl-1,14-dihydroxy-23,25-dimethoxy-12-((E)-2-{(1R,3R,4R)-3-methoxy-4-[({[(4-pyridinylmethoxy)carbonyl]amino}sulfonyl)oxy]cycyclohexyl}-1-methylethenyl)-13,19,21,27-tetramethyl-2,3,10,16-tetraoxo-11,28-dioxa-4-azatricyclo[22.3.1.0^4,9]octacos-18-ene]
0.16	CC[C@@H]1/C=C(\C)C[C@H](C)C[C@H](OC)[C@H]2O[C@@](O)(C(=O)C(=O)N3CCCC[C@H]3C(=O)O[C@H](/C(C)=C/[C@@H]3CC[C@@H](OS(=O)(=O)NC(=O)OCc4ccccn4)[C@H](OC)C3)[C@H](C)[C@@H](O)CC1=O)[C@H](C)C[C@@H]2OC [Example 10, (1R,9S,12S.13R,14S,17R,21S,23S,24R,25S,27R)-17-ethyl-1,14-dihydroxy-23,25-dimethoxy-12-((E)-2-[(1R,3R,4R)-3-methoxy-4-[({[(2-pyridinylmethoxy)carbonyl]amino}sulfonyl)oxy]cyclohexyl]-1-methylethenyl)-13,19,21,27-tetramethyl-2,3,10,16-tetraoxo-11,28-dioxa-4-azatricyclo[22.3.1.0^4,9]octacos-18-ene]
